Experimental data as given in publication PMC6753678, “Fueling Open Innovation for Malaria Transmission-Blocking Drugs: Hundreds of Molecules Targeting Early Parasite Mosquito Stages” (Frontiers in Microbiology, 2019).
Read-outs that look alike come from different tables or passages of the source.

Tests used:
[1] = test system: 3D7-strain P. falciparum asexual parasites; assay: P. falciparum asexual growth inhibition assay (Pf GIA); type: cell-based, Plasmodium falciparum; details: dose response confirmation; read-out: Pf asexual growth inhibition assays IC50
Procedure, shortened: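 Steps: seed parasites (0.25% parasitemia, 2% hematocrit) onto compound dilutions; incubate 72 h at 37°C, 5% O2/5% CO2; freeze at −70°C and thaw; add LDH reaction mix, read A650 after 10 min. Percent growth inhibition derived from chloroquine and DMSO controls, averaged over three biological replicates.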

[2] = test system: P. falciparum late stage (stages IV-V) gametocytes; assay: P. falciparum late stage gametocyte ATP depletion assay (Pf GC-ATP); details: 1: YES; 0: NO
[3] = test system: P. berghei ookinete development; details: for Is compound selective in assay? Pb ODA active?: 1: YES, 0: NO; for % inhibition, Replicate A / % inhibition, Replicate B: primary screen at 1 μM
[4] = test system: P. falciparum female gametocytes; assay: P. falciparum female gametogenesis assay (Pf FGAA); details: 1: YES; 0: NO
[5] = test system: P. falciparum late stage (stages IV-V) gametocytes; design: method as in Almela et al 2016; details: ref Almela et al 2016, read-out: Pf GCT ATP IC50, cited from earlier work
[6] = test system: HepG2 cells; assay: HepG2 cytotoxicity assay; details: for IC50: read-out: HepG2 cytotoxicity assay IC50, dose response confirmation; for HepG2 cytoxicity: value reported with the Pb ODA screen
Procedure, shortened: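 Here viability after a 48 h compound incubation (37°C, humidified 5% CO2) is measured by fluorescence and expressed as percent inhibition, with doxorubicin at 50 μM and DMSO as the bounding controls.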

[7] = test system: HepG2 cells; details: cited from earlier work
[8] = test system: P. falciparum female gametocytes; design: method as in Miguel-Blanco et al 2017; details: ref Miguel-Blanco et al 2017, read-out: Pf FGAA IC50, cited from earlier work
[9] = read-out: Pb ODA IC50, this manuscript
[10] = read-out: Pb Ookinete development assay IC50, dose response confirmation
[11] = HepG2 cytotoxicity unified across the three screens
[12] = value reported with the Pf FGAA screen, ref Miguel-Blanco et al 2017
[13] = value reported with the Pf GCT ATP screen, ref Almela et al 2016

| Structure (SMILES) | IC50 [1] [nM] | Is compound selective in assay? Pf GC-ATP active? [2] | Is compound selective in assay? Pb ODA active? [3] | % inhibition, Replicate A [3] [%] | % inhibition, Replicate B [3] [%] | IC50 [3, 9] [nM] | IC50 [3, 10] [nM] | Is compound selective in assay? Pf FGAA active? [4] | IC50 [6] [nM] | IC50 ([5]; TCAMS screen comparison) [nM] | Unified cytotox [6, 11] [µM] | HepG2 cytoxicity [7, 12] [µM] | HepG2 cytoxicity [7, 13] [µM] | IC50 ([8]; TCAMS screen comparison) [nM] | other results |
| --- | --- | --- | --- | --- | --- | --- | --- | --- | --- | --- | --- | --- | --- | --- | --- |
| Cl.c1ccc2c(NCCCCCCCCCNc3c4ccccc4nc4ccccc34)c3ccccc3nc2c1 [TCMDC-124286] | 349 | 0 (0: NO) | 0 (0: NO) | 34.80 | 55.23 | 2030 | 2030 | 0 (0: NO) | 5500 |  |  |  |  |  | IC50 [5]: 1500 nM; HepG2 cytoxicity (Pb ODA, this manuscript) ([6]; HepG2, this manuscript): 5.50 µM; Unified cytotox ([6]; HepG2 values of the three screens unified): 5.50 µM; HepG2 cytoxicity (Pf GCT ATP screen) ([7]; HepG2, ref Almela et al 2016): 6.1 µM; HepG2 cytoxicity (Pf FGAA screen) ([7]; HepG2, ref Miguel-Blanco et al 2017): 4.90 µM; IC50 [8]: 1800 nM |
| CCc1c(CCNCCCCCCNCCc2ccc([N+](=O)[O-])cc2)ccc(OC)c1OC.Cl [TCMDC-132066] | 675 | 1 (1: YES) | 0 (0: NO) | 25.72 | 55.23 | 6610 | 6600 | 0 (0: NO) | 5130 | 540 | 5.46 | 4.57 | 6.67 | 1460 | HepG2 cytoxicity ([6]; this manuscript): 5.13 µM |
| COc1cc(-c2cc(-c3ccc(S(C)(=O)=O)cc3)cnc2N)ccc1O [TCMDC-133343] | 242 | 1 (1: YES) | 1 (1: YES) | 63.88 | 36.72 | 2110 | 2110 | 1 (1: YES) | 57500 | 1240 | 49.62 | 41.69 | >25 | 390 | HepG2 cytoxicity ([6]; this manuscript): 57.54 µM |
| Cc1occc1C(=O)Nc1nc(-c2ccccn2)nc2ccsc12 [TCMDC-135244] | 656 | 0 (0: NO) | 0 (0: NO) | 79.17 | 64.59 | 1340 | 1340 | 1 (1: YES) | 870 | 300 | 0.87 | >100 | <1.56 | 60 |  |
| Nc1nc(N)c2c(ccc3c2ccn3Cc2ccc(-c3ccccc3)cc2)n1 [TCMDC-137813] |  | 0 (0: NO) |  | 53.67 | 5.32 |  |  | 0 (0: NO) |  | 1450 | 1.38 | 1.16 | 1.6 | 2010 |  |
| CC(=O)c1ccc2nc[nH]c(=O)c2c1 [TCMDC-138172] | 287 | 0 (0: NO) | 0 (0: NO) | 76.19 | 65.80 | 500 | 503 | 0 (0: NO) | 1240 | 400 | 3.74 | 6.24 | <1.56 | 980 | HepG2 cytoxicity ([6]; this manuscript): 1.24 µM |
| C=CCC1OC(=O)c2cc(OC)cc(OC)c21 (stereo not drawn) [TCMDC-138677] | 447 | 0 (0: NO) | 0 (0: NO) | 53.73 | 47.60 | 2360 | 2360 | 0 (0: NO) | 2570 | 600 | 2.43 | 2.29 | <1.56 | 360 | HepG2 cytoxicity ([6]; this manuscript): 2.57 µM |
| CC1(C)CC(NCCCCCCCOc2ccc(OCc3ccccc3)cc2)CC(C)(C)N1.Cl [TCMDC-138958] |  | 0 (0: NO) |  | 59.61 | 10.57 |  |  | 0 (0: NO) |  | 680 | 2.88 | 2.75 | 3 | 1230 |  |
| CC(Cc1ccc(OCCCCOc2ccccc2)cc1)NCCC1CCCN1C (stereo not drawn) [TCMDC-140017] |  | 1 (1: YES) |  |  |  |  |  | 0 (0: NO) |  | 95 | 1.12 | 1.12 | <1.56 | 200 |  |
| CN(CCCCN)Cc1ccc(-c2ccc(Cl)cc2)cc1 [TCMDC-140123] |  | 0 (0: NO) |  |  |  |  |  | 0 (0: NO) |  | 410 | 3.77 | 3.55 | 3.99 | 1580 |  |
| CN1CCN(CCCN(Cc2cccc(-c3ccc(CNC4CCCC4)cc3)c2)C(=O)/C=C/c2ccccc2)CC1.O=C(O)C(F)(F)F [TCMDC-140544] |  | 0 (0: NO) |  |  |  |  |  | 0 (0: NO) |  | 740 | 7.04 | 7.70 | 6.39 | 1360 |  |
| CN1CCN(CCCN(Cc2cccc(-c3ccc(CNCCc4ccccc4)cc3)c2)C(=O)c2cccs2)CC1.O=C(O)C(F)(F)F [TCMDC-140568] |  | 0 (0: NO) |  |  |  |  |  | 0 (0: NO) |  | 890 | 5.79 | 5.98 | 5.6 | 1710 |  |
| CN1CCN(CCCNCc2cccc(-c3ccc(CNCCc4ccccc4)cc3)c2)CC1 [TCMDC-140643] |  | 1 (1: YES) |  |  |  |  |  | 0 (0: NO) |  | 410 | 13.08 | 7.92 | 18.24 | 1910 |  |
| COc1cc(NCCCNCc2cn(Cc3cc(Br)cc(Br)c3)c3ccccc23)nc2ccccc12 [TCMDC-140677] |  | 0 (0: NO) |  |  |  |  |  | 0 (0: NO) |  | 590 | 5.03 | 3.94 | 6.13 | 860 |  |
| CN(C)CCCOc1ccc(CN2CCC(c3c[nH]c4ccc(NCC5CCCCC5)cc34)CC2)cc1.O=C(O)C(F)(F)F [TCMDC-140737] |  | 1 (1: YES) |  |  |  |  |  | 1 (1: YES) |  | 500 | 6.14 | 5.48 | 6.8 | 560 |  |
| CCN(CC)CCN(Cc1ccc(-c2ccc(C(F)(F)F)cc2)cc1)C(=O)Cn1cc(Cc2cnn(C)c2)c(=O)nc1/C=C/c1cccc(F)c1F [TCMDC-140964] |  | 1 (1: YES) |  |  |  |  |  | 1 (1: YES) |  | 170 | 12.05 | 9.69 | 14.4 | 870 |  |
| Cc1c(Cn2ncc(N3CCC(N)CC3)c(Cl)c2=O)cccc1NC(=O)Nc1ccc(-c2ccccc2)cc1.O=C(O)C(F)(F)F [TCMDC-141931] |  | 1 (1: YES) |  |  |  |  |  | 1 (1: YES) |  | 1180 | 18.70 | 22.90 | 14.5 | 1090 |  |
| Cl.Nc1c(I)cc(C(=O)Nc2ccc3nc4c(c(N)c3c2)CCCC4)cc1I [TCMDC-142289] |  | 1 (1: YES) |  |  |  |  |  | 0 (0: NO) |  | 410 | 6.27 | 4.52 | 8.03 | 780 |  |
